Several values for one entry are separate records, joined by “and”; a condition that tells them apart may be missing. Equal values may be shown once. Read-outs that look alike come from different tables or passages of the source.
Tests used:
fVIIa-sTF = fVIIa-sTF (Homo sapiens, UniProt P08709); experiment: fVIIa-sTF inhibitory assay; type: biochemical; conditions: for EC50: 95% confidence using GraphPad Prism 7; for Thrombin/FVIIa-sTF EC50 Ratio: thrombin EC50 divided by fVIIa-sTF EC50
Procedure: The compounds isolated from M. aeruginosa K139 were subjected to fVIIa-sTF and thrombin assays at 10 μg/mL and 100 μg/mL. […] Our microviridin B was isolated from the strain of M. aeruginosa K139. […] We used ethanol or water as negative controls.
The fVIIa-sTF and thrombin assays have been previously described in previous papers. […] A 1 mg/mL EtOH solution was prepared and independently diluted to make 750, 500, 250, 100, 75, 50, 25, 10, 5.0, 2.5, and 1.0 μg/mL. The same experimental procedure was done in all fVIIa-sTF and thrombin assays as previously described. A 20-μL solution was added in each well, in replicate, to make a final concentration of 100, 75, 50, 250, 100, 75, 50, 25, 10, 5.0, 2.5, and 1.0 μg/mL.

chymotrypsin = system: chymotrypsin; set-up: method as in PMID 19260658; conditions: literature; cited from earlier work
thrombin [1] = molecular target: T1, thrombin (Homo sapiens, UniProt P00734); conditions: literature, cited from earlier work
T1 construct: subjected to fVIIa-sTF and thrombin assays

thrombin [2] = molecular target: T1, thrombin; experiment: thrombin inhibitory assay; type: biochemical; conditions: for thrombin inhibition (in words): at 10 μg/mL and 100 μg/mL (low and high doses)
Procedure: The compounds isolated from M. aeruginosa K139 were subjected to fVIIa-sTF and thrombin assays at 10 μg/mL and 100 μg/mL. […] The micropeptin K139 gave a favorable fVIIa-sTF activity at 10 μg/mL and 100 μg/mL with inhibitory activity greater than 50% and 85%, respectively. […] The EC50 of each compound was computed by GraphPad Prism 7 [34], with 95% confidence. […] A difference in activity for the same compound may be attributed to the different cyanobacterial strains used in the study. Our microviridin B was isolated from the strain of M. aeruginosa K139. Okino’s group isolated the compound from the NIES-102 cyanobacterial strain. […]. […] We used ethanol or water as negative controls.
The fVIIa-sTF and thrombin assays have been previously described in previous papers. The half maximal effective concentration (EC50) compounds isolated from M. aeruginosa K139 was done in three plates, with two replicates in each of plate. A 1 mg/mL EtOH solution was prepared and independently diluted to make 750, 500, 250, 100, 75, 50, 25, 10, 5.0, 2.5, and 1.0 μg/mL. The same experimental procedure was done in all fVIIa-sTF and thrombin assays as previously described. A 20-μL solution was added in each well, in replicate, to make a final concentration of 100, 75, 50, 250, 100, 75, 50, 25, 10, 5.0, 2.5, and 1.0 μg/mL. The EC50 was calculated from GraphPad Prism 7^© [34], with 95% confidence.

[3] = 95% confidence using GraphPad Prism 7, read-out: Thrombin: EC50

fVIIa-sTF, sequence (P08709 61-212 limits assumed): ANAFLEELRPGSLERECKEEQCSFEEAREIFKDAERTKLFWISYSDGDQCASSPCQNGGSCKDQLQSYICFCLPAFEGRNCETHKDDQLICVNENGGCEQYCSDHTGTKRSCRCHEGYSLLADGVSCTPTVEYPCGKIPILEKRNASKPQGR
fVIIa-sTF, sequence (P08709 213-466 limits assumed): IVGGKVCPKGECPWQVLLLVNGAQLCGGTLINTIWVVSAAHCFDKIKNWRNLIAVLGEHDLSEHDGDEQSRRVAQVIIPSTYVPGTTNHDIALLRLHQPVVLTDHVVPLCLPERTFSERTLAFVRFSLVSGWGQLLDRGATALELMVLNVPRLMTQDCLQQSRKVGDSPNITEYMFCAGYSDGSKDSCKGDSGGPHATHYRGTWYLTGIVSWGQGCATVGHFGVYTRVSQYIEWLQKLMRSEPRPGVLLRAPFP
fVIIa-sTF, sequence (P13726 33-251 partner limits assumed): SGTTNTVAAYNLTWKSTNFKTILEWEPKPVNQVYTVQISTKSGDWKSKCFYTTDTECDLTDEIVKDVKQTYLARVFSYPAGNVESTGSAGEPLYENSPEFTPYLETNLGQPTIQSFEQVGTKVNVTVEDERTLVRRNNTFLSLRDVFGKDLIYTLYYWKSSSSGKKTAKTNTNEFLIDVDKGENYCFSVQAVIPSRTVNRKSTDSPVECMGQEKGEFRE

Structure (SMILES): CC[C@H](C)[C@@H]1NC(=O)[C@H](Cc2ccc(O)cc2)N(C)C(=O)[C@H](CC(C)C)N2C(=O)[C@H](CC[C@H]2O)NC(=O)[C@H](Cc2ccc(O)cc2)NC(=O)[C@@H](NC(=O)[C@H](CCC(N)=O)NC(=O)[C@H](O)Cc2ccc(O)cc2)[C@@H](C)OC1=O [917S-A]
- fVIIa-sTF inhibitory activity (in words) (fVIIa-sTF; at 100 μg/mL): negative inhibitory activity

Structure (SMILES): CCC(C)C1NC(=O)C(Cc2ccc(O)cc2)N(C)C(=O)C(CC(C)C)N2C(=O)C(CCC2O)NC(=O)C(CC2C=CC(O)CC2)NC(=O)C(NC(=O)C(CCC(N)=O)NC(=O)C(O)Cc2ccc(O)cc2)C(C)OC1=O (stereo not drawn) [917S-B]
- fVIIa-sTF inhibitory activity (in words) (fVIIa-sTF; at 100 μg/mL): negative inhibitory activity

Structure (SMILES): CC[C@H](C)[C@@H]1NC(=O)[C@H](Cc2ccc(O)cc2)N(C)C(=O)[C@H](CC(C)C)N2C(=O)[C@H](CC[C@H]2O)NC(=O)[C@H](CC(C)C)NC(=O)[C@@H](NC(=O)[C@H](CCC(N)=O)NC(=O)[C@H](O)Cc2ccc(O)cc2)[C@@H](C)OC1=O [917S-C]
- fVIIa-sTF inhibitory activity (in words) (fVIIa-sTF; at 100 μg/mL): negative inhibitory activity

Structure (SMILES): CCCCCCCC(=O)N[C@@H](CCC(=O)O)C(=O)N[C@@H]1C(=O)N[C@@H](Cc2ccc(O)cc2)C(=O)N[C@H]2CC[C@@H](O)N(C2=O)[C@@H](CC(C)C)C(=O)N(C)[C@@H](Cc2ccc(O)cc2)C(=O)N[C@@H](C(C)C)C(=O)O[C@@H]1C [micropeptin F]
- chymotrypsin EC50 (chymotrypsin): 1.5 µg/mL

Structure (SMILES): CCCCCCCC(=O)N[C@@H](CCC(=O)O)C(=O)N[C@@H]1C(=O)N[C@@H](CCCCN)C(=O)N[C@H]2CC[C@@H](O)N(C2=O)[C@@H](CC(C)C)C(=O)N(C)[C@@H](Cc2ccc(O)cc2)C(=O)N[C@@H](C(C)C)C(=O)O[C@@H]1C [micropeptin A]
- thrombin inhibitory assay (in words) (thrombin [1]): inactive
- thrombin inhibitory assay (in words) (thrombin [1]; listed as Micropeptin A): does not inhibit thrombin

Structure (SMILES): N=C(N)c1ccc(CS(=O)(=O)F)cc1 [APMSF, 4-amidinophenylmethanesulfonylfluoride]
- EC50 (thrombin [2]): 2.1 µM

Structure (SMILES): CCCCCC(=O)N[C@@H](CC(=O)O)C(=O)N[C@@H]1C(=O)N[C@@H](CCCNC(=N)N)C(=O)N[C@H]2CC[C@@H](O)N(C2=O)[C@@H]([C@@H](C)CC)C(=O)N(C)[C@@H](Cc2ccc(O)cc2)C(=O)N[C@@H]([C@@H](C)CC)C(=O)O[C@@H]1C [Micropeptin K139]
- EC50 (fVIIa-sTF): 10.6 µM
- inhibition at 10 µg/mL (fVIIa-sTF; at 10 μg/mL): > 50%
- inhibition at 100 µg/mL (fVIIa-sTF; at 100 μg/mL): > 85%
- Thrombin/FVIIa-sTF EC50 Ratio (fVIIa-sTF): 2.54
- Thrombin/FVIIa-sTF EC50 Ratio (fVIIa-sTF; listed as micropeptin K139): greater than one
- EC50 (thrombin [2]; [3]): 26.9 µM
- thrombin inhibition (in words) (thrombin [2]): inhibited thrombin

Structure (SMILES): CCCCCC(=O)N[C@@H](CCC(=O)O)C(=O)N[C@@H]1C(=O)N[C@@H](Cc2ccc(O)cc2)C(=O)N[C@H]2CC[C@@H](O)N(C2=O)[C@@H](CC(C)C)C(=O)N(C)[C@@H](Cc2ccc(O)cc2)C(=O)N[C@@H](C(C)C)C(=O)O[C@@H]1C [micropeptin E]
- chymotrypsin EC50 (chymotrypsin): 1.0 µg/mL

Structure (SMILES): CCCCCCCC(=O)N[C@@H](CCC(=O)O)C(=O)N[C@@H]1C(=O)N[C@@H](Cc2ccc(O)cc2)C(=O)N[C@H]2CC[C@@H](O)N(C2=O)[C@@H](Cc2ccccc2)C(=O)N(C)[C@@H](Cc2ccc(O)cc2)C(=O)N[C@@H](C(C)C)C(=O)O[C@@H]1C [micropeptin D]
- chymotrypsin EC50 (chymotrypsin): 1.2 µg/mL

Structure (SMILES): CC(=O)N[C@@H](CC(C)C)C(=O)N[C@@H](CC(C)C)C(=O)N[C@H](C=O)CCCNC(=N)N [Leupeptin]
- EC50 (fVIIa-sTF): 14 µM
- Thrombin/FVIIa-sTF EC50 Ratio (fVIIa-sTF): 1.31
- EC50 (thrombin [2]; [3]): 18.3 µM

Structure (SMILES): CC(C)CC(NC(=O)C(O)Cc1ccc(O)cc1)C(=O)N1C(C(=O)NC2CCCN(C(=N)N)C2O)CC2CCC(O)CC21 [Aeruginosin K139, L-Hpla-L-Leu-L-Choi-L-Argal]
- EC50 (fVIIa-sTF): 166 µM and ~166 µM
- fVIIa-sTF inhibitory activity (in words) (fVIIa-sTF; at 100 μg/mL): active
- Thrombin/FVIIa-sTF EC50 Ratio (fVIIa-sTF): 0.004
- EC50 (thrombin [2]; [3]): 0.66 µM
- thrombin inhibition (in words) (thrombin [2]): inhibited thrombin

Structure (SMILES): CCCCCC(=O)N[C@@H](CCC(=O)O)C(=O)N[C@@H]1C(=O)N[C@@H](Cc2ccc(O)cc2)C(=O)N[C@H]2CC[C@@H](O)N(C2=O)[C@@H](Cc2ccccc2)C(=O)N(C)[C@@H](Cc2ccc(O)cc2)C(=O)N[C@@H](C(C)C)C(=O)O[C@@H]1C [micropeptin C]
- chymotrypsin EC50 (chymotrypsin): 1.1 µg/mL

From article PMC5618414, “FVIIa-sTF and Thrombin Inhibitory Activities of Compounds Isolated from Microcystis aeruginosa K-139” (Marine Drugs, 2017)
